In PMC4411898, “Impact of kinesin Eg5 inhibition by 3,4-dihydropyrimidin-2(1H)-one derivatives on various breast cancer cell features” (BMC Cancer, 2015):

Columns and labels:
MCF-7 cells [1] = experiment: MTT cell viability assay, MCF-7; format: cell-based, human; conditions: for IC50: 72 h treatment, MTT, read-out: IC50 MCF-7; for Effect on cell viability, MCF-7: all concentrations tested 100 μM – 1.00 mM, 72 h
Description: (§1) Absorbance readings were measured by a spectrophotometer. Cell viability was normalized to control (vehicle only).

MDA-MB-231 cells [2] = experiment: MTT cell viability assay, MDA-MB-231; format: cell-based, human; conditions: for IC50: 72 h treatment, MTT, read-out: IC50 MDA-MB-231; for Effect on cell viability, MDA-MB-231: all concentrations tested 100 μM – 1.00 mM, 72 h
Description: as §1

Kinesin Eg5 = target: T1, Kinesin Eg5 (Homo sapiens, UniProt P52732); experiment: Kinesin inhibition assay (Kinesin ELIPA); format: biochemical; conditions: compound at its IC50, 30 min, 360 nm
T1 sequence (P52732 1-1056): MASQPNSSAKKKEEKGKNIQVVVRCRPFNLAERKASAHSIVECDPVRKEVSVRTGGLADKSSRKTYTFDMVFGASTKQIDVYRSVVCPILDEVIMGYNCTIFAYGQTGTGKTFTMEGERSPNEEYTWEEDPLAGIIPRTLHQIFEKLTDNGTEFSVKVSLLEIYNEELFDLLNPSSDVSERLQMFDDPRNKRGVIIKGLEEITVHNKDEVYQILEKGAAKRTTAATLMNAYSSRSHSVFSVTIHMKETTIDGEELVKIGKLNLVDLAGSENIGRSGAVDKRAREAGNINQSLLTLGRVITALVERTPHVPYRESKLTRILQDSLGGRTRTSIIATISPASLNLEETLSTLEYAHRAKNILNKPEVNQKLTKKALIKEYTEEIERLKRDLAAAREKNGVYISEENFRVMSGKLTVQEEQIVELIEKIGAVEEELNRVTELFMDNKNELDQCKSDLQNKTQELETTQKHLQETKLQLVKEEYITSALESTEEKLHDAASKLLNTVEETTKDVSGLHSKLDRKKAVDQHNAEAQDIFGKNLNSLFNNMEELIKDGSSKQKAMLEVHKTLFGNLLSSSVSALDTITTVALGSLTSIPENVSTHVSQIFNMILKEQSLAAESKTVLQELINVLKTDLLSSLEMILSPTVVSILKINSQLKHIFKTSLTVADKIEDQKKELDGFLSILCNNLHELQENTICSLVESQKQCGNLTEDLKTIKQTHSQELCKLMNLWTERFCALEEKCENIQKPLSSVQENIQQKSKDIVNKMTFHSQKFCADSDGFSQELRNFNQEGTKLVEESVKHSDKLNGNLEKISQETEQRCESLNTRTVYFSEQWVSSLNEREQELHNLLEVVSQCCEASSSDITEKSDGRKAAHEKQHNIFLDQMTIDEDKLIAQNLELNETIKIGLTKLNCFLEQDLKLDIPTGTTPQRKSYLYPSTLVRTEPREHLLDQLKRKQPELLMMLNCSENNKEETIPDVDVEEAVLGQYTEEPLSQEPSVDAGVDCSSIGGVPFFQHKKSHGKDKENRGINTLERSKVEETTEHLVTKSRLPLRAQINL
Description: Kinesin inhibition assays were performed using Kinesin ELIPA (Enzyme Linked Inorganic Phosphate Assay). Reactions were conducted in 96-well plates according to the manufacturer’s recommendations (Kinesin ELIPA Biochem Kit – BK060).
Reactions were measured in spectrophotometer set in kinetic mode and an absorbance wavelength of 360 nm.

MCF-7 cells [3] = experiment: α-tubulin immunostaining, spindle formation; format: cell-based, human; conditions: for Monoastral Spindle (%) 24 h / Bipolar Spindle (%) 24 h / Mitotic spindle / microtubule organization (α-tubulin immunostaining): MCF-7, 24 h; for Monoastral Spindle (%) 24 h / Bipolar Spindle (%) 24 h / Bipolar Spindle (%) 48 h / Monoastral Spindle (%) 48 h: n = 300 dividing cells; for Monoastral Spindle (%) 24 h / Mitotic spindle / microtubule organization (α-tubulin immunostaining): 4m 1.0 mM, 4bt 0.8 mM, 4p 0.4 mM, 4bc 1.0 mM, 4x 0.8 mM; for Monoastral Spindle (%) 24 h: monastrol 0.1 mM; for Bipolar Spindle (%) 24 h / Bipolar Spindle (%) 48 h / Monoastral Spindle (%) 48 h: concentrations as E14; for Bipolar Spindle (%) 48 h / Monoastral Spindle (%) 48 h: MCF-7, 48 h
Description: Aliquots of 7 × 10^4 MCF-7 cells were seeded onto 12 mm round glass coverslips placed in the base of each well of a 24-well plate. After adhesion, cells were treated for 24 and 48 h with the pre-selected compounds at their maximum non-cytotoxic concentrations to normal cells or incubated with culture medium only for the same duration (negative control). Cells were washed with PBS, fixed with 3.7% formaldehyde, permeabilized with 0.1% Triton X-100 and blocked in PBS supplemented with 1% skimmed milk, 2.5% bovine serum albumin (BSA) and 8% fetal bovine serum (FBS) at room temperature. Cells were incubated overnight with mouse anti-α-tubulin antibody (1:500) at 4°C, followed by incubation with a secondary antibody: Alexa Fluor 488 rabbit anti-mouse IgG (1:400), for 1 hour at 37°C. Nuclei were stained with 300 nM DAPI. The coverslips were mounted with ProLong Gold Antifade and specimens observed under a laser scanning confocal microscope.
Table S1. Quantification of monopolar spindles occurred as a result of treatment with DHPM derivatives. MCF-7 control cells or cells treated for 24 or 48 h with 4m (1 mM), […]
antibody. The percentage of dividing cells showing presence of monoastral and bipolar spinles formation determined (n = 300).
Experimental Group Monoastral Spindle (%) Bipolar Spindle (%)

MCF-7 cells [4] = experiment: Apoptosis and necrosis assay (Annexin-V/PI flow cytometry), MCF-7; format: cell-based, human; conditions: 72 h; 4m 1.0 mM, 4bt 0.8 mM, 4p 0.4 mM, 4bc 1.0 mM, 4x 0.8 mM
Description: (§2) For proliferation assays, cells were treated with IC50 concentrations of each compound. Adherent and floating cells were harvested at the same tube and pelleted by centrifugation at 300 g for 5 minutes and stained. Data acquisition of these two fractions put together was performed on a FACSCalibur flow cytometer using CellQuest software and analysed using the FloJo Software. Untreated control cells and DHPMs-treated for 72 h cell samples were stained with Annexin-V-FITC or Annexin-V-Alexa Fluor® 680 and propidium iodide according to the manufacturer’s instructions.

MDA-MB-231 cells [5] = experiment: Apoptosis and necrosis assay (Annexin-V/PI flow cytometry), MDA-MB-231; format: cell-based, human; conditions: 72 h; 4m 1.0 mM, 4bt 0.8 mM, 4p 0.4 mM, 4bc 1.0 mM, 4x 0.8 mM
Description: as §2

MDA-MB-231 cells [6] = experiment: CD44+/CD24- expression analysis, MDA-MB-231; format: cell-based, human; conditions: 24 h; for CD44-/CD24- subpopulation, MDA-MB-231 (mean ± SEM): 4m 1.0 mM, 4bt 0.8 mM, 4p 0.4 mM, 4bc 1.0 mM, 4x 0.8 mM, monastrol 1.0 mM; for CD44-/CD24+ subpopulation, MDA-MB-231 (mean ± SEM) / CD44+/CD24+ subpopulation, MDA-MB-231 (mean ± SEM) / CD44+/CD24- subpopulation, MDA-MB-231 (mean ± SEM): concentrations as E32; for CD44+/CD24+ subpopulation, MDA-MB-231 (mean ± SEM): control 1.507 ± 0.47; for CD44+/CD24- subpopulation, MDA-MB-231 (mean ± SEM): untreated control 98.45 ± 0.47
Description: For proliferation assays, cells were treated with IC50 concentrations of each compound. Adherent and floating cells were harvested at the same tube and pelleted by centrifugation at 300 g for 5 minutes and stained. Data acquisition of these two fractions put together was performed on a FACSCalibur flow cytometer using CellQuest software and analysed using the FloJo Software. Expression level of CD44 and CD24 in treated and control MCF-7 or MDA-MB-231 cells was measured after 24 h of treatment.

MCF-7 cells [7] = experiment: Morphological alterations under inverted light microscope, MCF-7; format: cell-based, human; conditions: 72 h, maximum non-cytotoxic concentration to normal cells
Description: Figure 2 DHPM derivatives cause severe morphological alterations on breast cancer cells. MCF-7 and MDA-MB-231 cells were treated with the maximum non-cytotoxic concentration to normal cells for 72 h and morphological alterations analyzed under an inverted light microscope. Cells with elongated morphology, adherent to the surface and normal size are shown by arrows. Cells with size reduction, absence of focal adhesion points, rounded morphology and detached from the surface where they had been seeded are shown by arrowheads.

CCOC(=O)C1=C(C)NC(=S)NC1c1ccccc1O (stereo not shown) [Compound 4p]
IC50 (MCF-7 cells [1]): 87.5 µM | Effect on cell viability, MCF-7 (MCF-7 cells [1]): significant decrease in cell viability | IC50 (MDA-MB-231 cells [2]): 68.4 µM | Effect on cell viability, MDA-MB-231 (MDA-MB-231 cells [2]): significant decrease in cell viability | Inhibition of kinesin Eg5 activity in vitro (in words) (Kinesin Eg5): not statistically significant | Monoastral Spindle (%) 24 h (MCF-7 cells [3]): 0% | Bipolar Spindle (%) 24 h (MCF-7 cells [3]): 0% | Mitotic spindle / microtubule organization (α-tubulin immunostaining) (MCF-7 cells [3]): disruption of the microtubules | Bipolar Spindle (%) 48 h (MCF-7 cells [3]): 0% | Monoastral Spindle (%) 48 h (MCF-7 cells [3]): 0% | Cell death by apoptosis, % of MCF-7 cell population (MCF-7 cells [4]): less pronounced manner | Cell death by apoptosis, % of MDA-MB-231 cell population (MDA-MB-231 cells [5]): less pronounced manner | CD44-/CD24- subpopulation, MDA-MB-231 (mean ± SEM) (MDA-MB-231 cells [6]): 0.02 ± 0.009% | CD44-/CD24+ subpopulation, MDA-MB-231 (mean ± SEM) (MDA-MB-231 cells [6]): 0.003 ± 0.003% | CD44+/CD24+ subpopulation, MDA-MB-231 (mean ± SEM) (MDA-MB-231 cells [6]): 5.507 ± 1.13% | CD44+/CD24- subpopulation, MDA-MB-231 (mean ± SEM) (MDA-MB-231 cells [6]): 94.45 ± 1.13% | Morphological alterations, MCF-7 (MCF-7 cells [7]): produced the same results

CC(=O)C1=C(C)NC(=O)NC1c1ccccc1[N+](=O)[O-] (stereo not shown) [Compound 4x]
IC50 (MCF-7 cells [1]): 276 µM | Effect on cell viability, MCF-7 (MCF-7 cells [1]): significant decrease in cell viability | IC50 (MDA-MB-231 cells [2]): 237 µM | Effect on cell viability, MDA-MB-231 (MDA-MB-231 cells [2]): significant decrease in cell viability | Inhibition of kinesin Eg5 activity in vitro (in words) (Kinesin Eg5): not statistically significant | Monoastral Spindle (%) 24 h (MCF-7 cells [3]): 50.80% | Bipolar Spindle (%) 24 h (MCF-7 cells [3]): 49.20% | Mitotic spindle / microtubule organization (α-tubulin immunostaining) (MCF-7 cells [3]): caused monoastral spindle formation | Bipolar Spindle (%) 48 h (MCF-7 cells [3]): 12.01% | Monoastral Spindle (%) 48 h (MCF-7 cells [3]): 87.99% | Cell death by apoptosis, % of MCF-7 cell population (MCF-7 cells [4]): less pronounced manner | Cell death by apoptosis, % of MDA-MB-231 cell population (MDA-MB-231 cells [5]): less pronounced manner | CD44-/CD24- subpopulation, MDA-MB-231 (mean ± SEM) (MDA-MB-231 cells [6]): 0.01 ± 0.003% | CD44-/CD24+ subpopulation, MDA-MB-231 (mean ± SEM) (MDA-MB-231 cells [6]): 0.020 ± 0.0200% | CD44+/CD24+ subpopulation, MDA-MB-231 (mean ± SEM) (MDA-MB-231 cells [6]): 6.08 ± 2.10% | CD44+/CD24- subpopulation, MDA-MB-231 (mean ± SEM) (MDA-MB-231 cells [6]): 93.88 ± 2.12% | Morphological alterations, MCF-7 (MCF-7 cells [7]): no significant alterations
